Patent US8435576B2, “Use of cocoa polyphenols for treating a prostate hyperplasia, a specific cocoa extract and applications” (Barry Callebaut AG, priority 2005, dated 2013)

Assays:
[1] = tested on: coculture of 22Rv1 and RWEP-1 cells; assay: Anti-galectin 8 immunolabeling of treated coculture; assay type: cell-based, human; conditions: medium M3, 2.5×10^−4% and 1.2×10^−4%
Experimental: As a result, an anti-galectin 8 human monoclonal antibody (R&D Systems, Ref: MAB1305) was selected to specifically fluorescence-label the human prostate tumor cell line.
The healthy and tumoral cells were inoculated in coculture, at a rate of 30 000 cells per well for each cell line, in the selected medium for obtaining uniform and specific labeling of the tumoral cells.
After 24 hours in an incubator at 37° C. and 5% CO2 of saturated humidity, the coculture was incubated in the presence of β-sitosterol at two concentrations and of CPE also at two concentrations.
At the end of the incubation time with the products, the cell lawns were fixed in alcohol/acetic acid and then labeled with the anti-galectin 8 human monoclonal antibody for 1 hour. […] After intensive washing with PBS, the labeled cell lawns were observed using a Nikon DXM1200F camera driven by LUCIA 6.0 software. All the images were taken under the same conditions and with identical camera settings.
For the experiment, in order to improve the intensity of this immunolabeling and for better visual rendering quality, the concentration of the anti-galectin 8 primary antibody was increased from 1/50th to 1/20th. Furthermore, this primary antibody was incubated overnight at +4° C. for better fixing of the antibody and thus for better labeling intensity. […]

[2] = tested on: human prostate carcinoma (22Rv1); assay: Cell proliferation test, neutral red release method, media M1-M3; assay type: cell-based; conditions: 22Rv1, media M1, M2 or M3, 24 hours
Experimental: (§1) • Healthy human prostate epithelial cells (RWEP-1, ATCC No. CRL-11609) • Human prostate carcinoma (22Rv1 ATCC No. CRL-2505) Culture: • 37° C., 5% CO2, 95% humidity
(§2) • Keratinocyte-serum free medium (KSFM) (Invitrogen, 17005-042) • Epidermal Growth Factor, 5 ng/ml (Invitrogen, 10450-013) • Bovine pituitary extract, 0.05 mg/ml (Invitrogen, 13028-014) • Penicillin 50 IU/ml-streptomycin 50 μg/ml 10 (v/v, Invitrogen 15070-063) Medium M2=Medium recommended for tumor cells (22Rv1): • RPMI 1640 medium (Invitrogen, 31870-025) • Decomplemented fetal calf serum, 10% (v/v Invitrogen 10270-098) • L-Glutamine, 1% (v/v Invitrogen 25030-024) • Penicillin 50 IU/ml-streptomycin 50 μg/ml 1 (v/v, • Invitrogen 15070-063) Medium M3=Mixed medium: • Whole keratinocyte-serum free medium, 50% (v/v) • Whole RPMI 1640 medium, 50% (v/v) […]
(§3) After 24 hours of growth, the healthy and tumoral cell lines were incubated in the presence of β-sitosterol (reference product) at 8 concentrations (see paragraph b) above) or of CPE at 8 concentrations (see paragraph b) above). […] The amount of stain incorporated into the cells is measured by spectro-photometric reading at 540 nm and is directly pro-portional to the number of live cells. The results were expressed as a percentage of inhibition relative to the untreated control.

[3] = tested on: healthy human prostate epithelial cells (RWEP-1); assay: as above; assay type: cell-based; conditions: RWEP-1, media M1, M2 or M3, 24 hours
Experimental: as §1, §2, §3

## CC[C@H](CC[C@@H](C)[C@H]1CC[C@H]2[C@@H]3CC=C4C[C@@H](O)CC[C@]4(C)[C@H]3CC[C@]12C)C(C)C [β-sitosterol]
[1]
  Area of labeling (anti-galectin 8 and Hoechst): equivalent to that of the untreated proliferation control
[2]
  Inhibition of proliferation: weak inhibition of proliferation
[3]
  Inhibition of proliferation: weak inhibition of proliferation
